Results reported in the OPERA property sets (Mansouri et al. 2018).
≈ marks a conversion by molar mass, not a printed value.

Conditions: not given

Row | Compound | logP
1 | c1ccc2c(c1)Oc1ccccc1O2 | 4.3
2 | Clc1cc2c(cc1Cl)Oc1c(Cl)c(Cl)c(Cl)c(Cl)c1O2 | 7.8
3 | Clc1ccc2c(c1)Oc1c(Cl)c(Cl)c(Cl)c(Cl)c1O2 | 7.4
4 | Clc1cccc2c1Oc1ccccc1O2 | 4.75
5 | Clc1c(Cl)c(Cl)c2c(c1Cl)Oc1ccccc1O2 | 6.6
6 | Clc1cc(Cl)c2c(c1Cl)Oc1ccccc1O2 | 6.35
7 | Clc1cc2c(c(Cl)c1Cl)Oc1c(Cl)c(Cl)c(Cl)c(Cl)c1O2 | 8.2
8 | Clc1ccc2c(c1)Oc1ccccc1O2 | 5
9 | Clc1c(Cl)c(Cl)c2c(c1Cl)Oc1c(Cl)c(Cl)c(Cl)c(Cl)c1O2 | 8.2
10 | Clc1ccc2c(c1)Oc1ccc(Cl)cc1O2 | 5.75
11 | Clc1cc2c(cc1Cl)Oc1cc(Cl)c(Cl)cc1O2 | 6.8

Same assay, conditions: 25 °C

Row | Compound | solubility [nM]
12 | Clc1c(Cl)c(Cl)c2c(c1Cl)Oc1ccccc1O2 | 1.96 (≈ 0.63 ng/mL)
13 | Clc1cc2c(cc1Cl)Oc1cc(Cl)c(Cl)cc1O2 | 0.621 (≈ 0.2 ng/mL)
